The values below are quoted from earlier work in patent US20200399681A1, “ASSAY FOR DETECTION OF ANDROGEN RECEPTOR VARIANTS” (Cornell University, priority 2018, published 2020).

The structures appear in SMILES notation. Where two headings read alike, the source gives them in different places.

The test system of data set [1] is prostate cancer patients.
The test system of data set [2] is prostate cancer patients. The source holds these as a separate data set.

`CNC(=O)c1ccc(N2C(=S)N(c3ccc(C#N)c(C(F)(F)F)c3)C(=O)C2(C)C)cc1F` [enza, enzalutamide]: the “PSA progression-free survival, median” value in the data set on prostate cancer patients [1] (AR-V7- (negative) pts) is on record as 6.0 months; P < 0.001) &. In addition, the “overall survival (OS), median” value in the data set with prostate cancer patients [1] (AR-V7- (negative) pts) was “not reached”; in the data set with prostate cancer patients [1] (AR-V7-positive pts), 5.5 months. The “PSA response rates, AR-V7-positive pts compared with AR-V7- pts” value with prostate cancer patients [1] (AR-V7-positive vs AR-V7- pts) was “positive pts had lower PSA”. Moreover, the “adjusted HR for AR-V7 (TTF, multivariable analysis)” value with prostate cancer patients [2] (high AR-V7 expression, adjusted for covariates) is on record as “cohort (adjusted HR = 2.02”. Further, the “median OS” value in the data set with prostate cancer patients [2] (pts with high AR-V7 expression (the shorter OS)) is given as 13.8 months; with prostate cancer patients [2] (pts without high AR-V7 expression), 29.1 months. Further, in the data set with prostate cancer patients [2] (pts with high AR-V7 expression (top tertile, >19 copies/mg RNA)), the “time to treatment failure (TTF), median” value is “P = 0.046) and median 3.6 months”.
